Earlier results on two compounds are cited in patent US5530141A, “2,4-diaryl-1,3-dithiolanes; 2,4-diaryl-1,3-dioxolanes; 2,4-diaryl-1,3-oxathiolanes; and 2,5-diaryl-1,3-oxathiolanes for the treatment of disorders mediated by platelet activating factor or products of 5-lipoxygenase” (Center for Innovative Technology, priority 1992, dated 1996).

For data set [1], the system named is PAF receptor sites. The conditions noted are these: cited from earlier work.
Data set [2] deals with 5-lipoxygenase. The conditions noted are these: cited from earlier work.
Data set [3] has as its system PAF-induced rat cutaneous vascular permeability. The following applies: cited from earlier work.
The conditions of data set [4]: cited from earlier work.

Turning to `COc1cc([C@H]2CC[C@H](c3cc(OC)c(OC)c(OC)c3)O2)cc(OC)c1OC` (relative stereo) [L-652,731, trans-2,5-bis-(3,4,5-trimethoxyphenyl) tetrahydrofuran], the “inhibits the binding of tritiated PAF to PAF receptor sites” value in data set [1] (Hwang et al. 1985) was “inhibits the binding of tritiated PAF to PAF receptor sites”. Further, in data set [1] (more potent than cis-L-652,731), the “potency of trans-L-652,731 relative to cis-L-652,731” value is on record as “approximately 1000 times”. Besides, the “effect on the enzyme 5-lipoxygenase” value in data set [2] is “no effect on the enzyme 5-lipoxygenase”. Further, the “inhibition of PAF-induced rat cutaneous vascular permeability” value in data set [3] (dosage of 30 mg/kg body weight, rat) is listed as “inhibit PAF-induced rat cutaneous vascular permeability”. Further, in data set [3] (oral), the oral activity entry is given as “orally active”.
Turning to “1-O-alkyl-2-acetyl-sn-glycerol-3-phosphorylcholine [PAF]”, the plasma half life in data set [4] is 2 to 4 min.
